For three compounds, inhibition results are on record in US20130331261A1 (priority 2010, published 2013).

Common to all, as to assay type: cell-based
Experiment [1] deals with Fumonisin FB1 production by Fusarium proliferatum. The experiment can be described thus: Inhibition of fumonisin FB1 production by Fusarium proliferatum in fumonisin-inducing liquid media (HPLC-MS/MS). Particulars: 120 h, 5 days at 20° C., vs control without compound.
Another experiment relates to Fusarium proliferatum. The experiment can be described thus: microbe, parasite or virus in culture. Conditions: 120 h.
Experiment [2] concerns DON/Acetyl-DON production by Fusarium graminearum. The experiment can be described thus: microbe, parasite or virus in culture. Conditions: 168 h, read-out: % Inhibition of DON/AcDON at 50 μM.
The next experiment has as its system Fusarium graminearum. The experiment can be described thus: microbe, parasite or virus in culture. Conditions: 72 h, read-out: % Inhibition of fungal growth at 50 μM.
Experiment [3] relates to Production of Aflatoxins by Aspergillus parasiticus. The experiment can be described thus: microbe, parasite or virus in culture. Particulars: 168 h, read-out: % Inhibition of Aflatoxin at 50 μM.
Another experiment concerns Aspergillus parasiticus. The experiment can be described thus: microbe, parasite or virus in culture. Particulars: 168 h, read-out: % Inhibition of fungal growth at 50 μM.

SMILES strings stand for the structures.

Take `COC(c1ccc(Cl)cc1Cl)C(C)NC(=O)c1cn(C)nc1C(F)F` (stereo not drawn) [Example 1]: the inhibition at 50 µM in experiment [1] came out at 100%; in the experiment on Fusarium proliferatum, 67%; in experiment [2] it was 100%; in the experiment with Fusarium graminearum, 54%; in experiment [3], 100%; in the experiment on Aspergillus parasiticus, 100%.
Take `COC(c1ccc(Cl)cc1Cl)C(C)NC(=O)c1c(C)nn(C)c1F` (stereo not drawn) [Example 2]: the inhibition at 50 µM in experiment [1] amounted to 100%; with Fusarium proliferatum, 77%; in experiment [2] it was 100%; with Fusarium graminearum, 58%; in experiment [3], 100%; in the experiment on Aspergillus parasiticus, 100%.
As to `COC(c1ccc(Cl)cc1Cl)C(C)NC(=O)c1c(C(F)F)nn(C)c1F` (stereo not drawn) [Example 3], the inhibition at 50 µM in experiment [1] was found to be 100%; in the experiment on Fusarium proliferatum, 86%; in experiment [2], 100%; with Fusarium graminearum, 41%; in experiment [3] it was 100%; in the experiment on Aspergillus parasiticus, 100%.
